Experiments:
human mGlu2 receptor = biological target: T1, human mGlu2 receptor (Homo sapiens, UniProt Q14416); test: [35S]GTPγS binding assay, mGluR2 PAM; format: biochemical; conditions: in presence of glutamate at EC20; EC50 expressed in M; read-out: GTPγS - hmGluR2 PAM pEC50 (converted)
T1 construct: expressed in transfected cells; host or cells: CHO cells
Procedure: [^35S]GTPγS Binding Assay
The [^35S]GTPγS binding assay is a functional membrane-based assay used to study G-protein coupled receptor (GPCR) function whereby incorporation of a non-hydrolysable form of GTP, [^35S]GTPγS (guanosine 5′-triphosphate, labelled with […] ^35S), is measured.
Cells were then collected by scraping in PBS and cell suspension was centrifuged (10 min at 4000 RPM in benchtop centrifuge). Supernatant was discarded and pellet gently resuspended in 50 mM Tris-HCl, pH 7.4 by mixing with a vortex and pipetting up and down. The suspension was centrifuged at 16,000 RPM (Sorvall RC-5C plus rotor SS-34) for 10 minutes and the supernatant discarded. The pellet was homogenized in 5 mM Tris-HCl, pH 7.4 using an ultra-turrax homogenizer and centrifuged again (18,000 RPM, 20 min, 4° C.). The final pellet was resuspended in 50 mM Tris-HCl, pH 7.4 and stored at −80° C. in appropriate aliquots before use. Protein concentration was determined by the Bradford method (Bio-Rad, USA) with bovine serum albumin as standard.
Measurement of mGluR2 positive allosteric modulatory activity of test compounds was performed as follows. Test compounds and glutamate were diluted in assay buffer containing 10 mM HEPES acid, 10 mM HEPES salt, pH 7.4, 100 mM NaCl, 3 mM MgCl2 and 10 μM GDP. Human mGlu2 receptor-containing membranes were thawed on ice and diluted in assay buffer supplemented with 14 μg/ml saponin. Membranes were pre-incubated with compound alone or together with a predefined (˜EC20) concentration of glutamate (PAM assay) for 30 min at 30° C. After addition of [^35S]GTPγS (f c. 0.1 nM), assay mixtures were shaken briefly and further incubated to allow [^35S]GTPγS incorporation on activation (30 minutes, 30° C.). Final assay mixtures contained 7 μg of membrane protein in 10 mM HEPES acid, 10 mM HEPES salt, pH 7.4, 100 mM NaCl, 3 mM MgCl2, 10 μM GDP and 2 μg/ml saponin. […] Filters were washed 6 times with ice-cold 10 mM NaH2PO4/10 mM Na2HPO4, pH 7.4. Filters were then air-dried, and 40 μl of liquid scintillation cocktail (Microscint-O) was added to each well. Membrane-bound radioactivity was counted in a Microplate Scintillation and Luminescence Counter from Perkin Elmer.
The concentration-response curves of representative compounds of the present invention—obtained in the presence of EC20 of mGluR2 agonist glutamate to determine positive allosteric modulation (PAM)—were generated using the Lexis software interface (developed at J&J). Data were calculated as % of the control glutamate response, defined as the maximal response that is generated upon addition of glutamate alone. Sigmoid concentration-response curves plotting these percentages versus the log concentration of the test compound were analyzed using non-linear regression analysis. The concentration producing half-maximal effect is then calculated as EC50.
The pEC50 values below were calculated as the −log EC50, when the EC50 is expressed in M. Emax is defined as relative maximal effect (i.e. maximal % effect relative to the control glutamate response).
All compounds were tested in presence of mGluR2 agonist glutamate at a predetermined EC20 concentration, to determine positive allosteric modulation. pEC50 values were calculated from a concentration-response experiment of at least 8 concentrations.

male Wiga Wistar rats = test: Conditioned avoidance response (CAR) test in rats; format: in vivo; conditions: Rattus norvegicus, PO, suspension in 20% hydroxypropyl-b-cyclodextrin containing 1% polysorbate 80
From the text: The apparatus consisted of an inner box surrounded by an outer box. The inner box was composed of four walls of transparent, synthetic material (length×width×height: 30×30×30 cm), an open top, and a grid floor made of 15 pairs of iron bars (2 mm diameter; 6 mm inter-bar distance). Odd and even bars were connected with a source of alternative current (1.0 mA; Coulbourn Instruments Solid State Shocker/Distributor), which could be interrupted by a switch. The outer box was composed of the same material (length×width×height: 40×40×36 cm), also with an open top, with a distance of 5 cm between the inner and outer box on all sides. To decrease the amount of environmental stimuli, three walls of the outer box were made non-transparent. The front wall was left transparent to allow the necessary inspection of the animal during the test. The upper edge of the outer and inner box served as a target for the rats on which to jump with fore- and hind-paws, respectively. Avoidance Conditioning and Selection of Animals From their arrival in the laboratory on the experimental day, male Wiga Wistar rats (230±30 g) were housed in individual cages provided with bedding material. […] Experimental Sessions The rats were tested 3 times, i.e. at 60, 90 and 120 min after the injection of test compound or solvent. Latency to avoidance was recorded. […]

T1 sequence (Q14416 19-872): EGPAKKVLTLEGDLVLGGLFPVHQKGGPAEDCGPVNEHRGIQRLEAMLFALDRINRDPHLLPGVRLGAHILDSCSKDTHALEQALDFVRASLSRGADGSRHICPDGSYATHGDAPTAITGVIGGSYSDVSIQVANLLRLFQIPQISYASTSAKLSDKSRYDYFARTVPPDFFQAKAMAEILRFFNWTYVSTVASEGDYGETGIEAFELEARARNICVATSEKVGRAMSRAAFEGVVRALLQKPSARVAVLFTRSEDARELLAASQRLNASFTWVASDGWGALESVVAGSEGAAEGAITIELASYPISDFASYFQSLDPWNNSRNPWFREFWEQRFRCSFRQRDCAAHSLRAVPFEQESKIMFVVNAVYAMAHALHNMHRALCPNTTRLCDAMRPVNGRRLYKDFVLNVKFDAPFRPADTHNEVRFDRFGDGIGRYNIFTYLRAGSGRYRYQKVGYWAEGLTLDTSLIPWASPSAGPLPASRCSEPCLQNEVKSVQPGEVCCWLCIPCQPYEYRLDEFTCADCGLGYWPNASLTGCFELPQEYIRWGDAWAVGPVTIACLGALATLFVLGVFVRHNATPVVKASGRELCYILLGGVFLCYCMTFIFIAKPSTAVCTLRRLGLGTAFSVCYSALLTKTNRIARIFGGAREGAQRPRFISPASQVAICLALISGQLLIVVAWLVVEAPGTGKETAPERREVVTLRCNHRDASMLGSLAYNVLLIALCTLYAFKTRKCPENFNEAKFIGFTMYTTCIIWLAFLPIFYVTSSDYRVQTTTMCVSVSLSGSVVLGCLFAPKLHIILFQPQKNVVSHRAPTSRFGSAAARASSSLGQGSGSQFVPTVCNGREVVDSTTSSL

EC50 (human mGlu2 receptor): 0.0407 µM
SMILES: C[C@H](Oc1ccc(F)cc1F)c1ccn2c(CC3CC3)nnc2c1C(F)(F)F [Compound 6, 3-(Cyclopropylmethyl)-7-[(1S)-1-(2,4-difluorophenoxy)ethyl]-8-(trifluoromethyl)[1,2,4]triazolo[4,3-a]pyridine]
ED50 (male Wiga Wistar rats): 8.1 mg/kg
